According to the NIST ThermoML archive (doi:10.1021/je900966r):

Legend:
[1] = mn = molality of the nth substance listed, in mol/kg; settings: 101 kPa, Liquid
[2] = refractive index (Na D-line) (dimensionless); mn = molality of the nth substance listed, in mol/kg; settings: 298.15 K, 101 kPa, Liquid, Standard Abbe refractometry

CC(C)O [propan-2-ol] + O
mass density [kg/m3], [1]
Settings	m1 = 0.1	m1 = 0.1501	m1 = 0.1999	m1 = 0.3	m1 = 0.3998	m1 = 0.5
293.15 K	996.544	995.924	995.4	994.591	993.922	993.065
298.15 K	995.386	994.764	994.22	993.429	992.857	991.893
303.15 K	993.986	993.358	992.795	992.018	991.441	990.472
308.15 K	992.365	991.731	991.148	990.384	989.702	988.826
313.15 K	990.542	989.901	989.299	988.545	987.816	986.979

[2]
Settings	refractive index
m1 = 0.1	1.3329
m1 = 0.1501	1.3335
m1 = 0.1999	1.3338
m1 = 0.3	1.3341
m1 = 0.3998	1.3345
m1 = 0.5	1.335

OC[C@@H](O)[C@@H](O)[C@H](O)[C@H](O)CO [mannitol] + O
mass density [kg/m3], [1]
Settings	m1 = 0.1	m1 = 0.1499	m1 = 0.1999	m1 = 0.25	m1 = 0.3	m1 = 0.35	m1 = 0.4
293.15 K	1004.39	1007.5	1010.61	1013.69	1016.75	1019.74	1022.71
298.15 K	1003.21	1006.3	1009.4	1012.46	1015.48	1018.46	1021.43
303.15 K	1001.79	1004.87	1007.95	1010.98	1013.99	1016.97	1019.92
308.15 K	1000.12	1003.19	1006.23	1009.26	1012.25	1015.19	1018.13
313.15 K	998.283	1001.33	1004.36	1007.37	1010.33	1013.26	1016.18

[2]
Settings	refractive index
m1 = 0.1	1.3358
m1 = 0.1499	1.337
m1 = 0.1999	1.3385
m1 = 0.25	1.3396
m1 = 0.3	1.341
m1 = 0.35	1.3422
m1 = 0.4	1.343

O [water] + OC[C@@H](O)[C@@H](O)[C@H](O)[C@H](O)CO
Settings	refractive index
[2], m2 = 0	1.3326

CCCO [propan-1-ol] + O
mass density [kg/m3], [1]
Settings	m1 = 0.1001	m1 = 0.15	m1 = 0.2	m1 = 0.3	m1 = 0.4	m1 = 0.5
293.15 K	996.609	996.479	996.336	995.903	994.27	993.364
298.15 K	995.441	995.293	995.163	994.694	993.072	992.148
303.15 K	994.029	993.828	993.747	993.242	991.629	990.687
308.15 K	992.397	992.237	992.113	991.569	989.962	989.004
313.15 K	990.564	990.399	990.278	989.694	988.093	987.114

[2]
Settings	refractive index
m1 = 0.1001	1.3331
m1 = 0.15	1.3338
m1 = 0.2	1.3341
m1 = 0.3	1.3344
m1 = 0.4	1.3349
m1 = 0.5	1.3353
